Data published in article PMC10144566, “Pharmacokinetic Profile Evaluation of Novel Combretastatin Derivative, LASSBio-1920, as a Promising Colorectal Anticancer Agent” (Pharmaceutics, 2023).
Like-named read-outs stand apart in the source and are kept apart here.

Assays:
EGFR-wt = biological target: T1, EGFR-wt (Homo sapiens, UniProt P00533); experiment: Inhibition of EGFR, LANCE TR-FRET assay; assay type: biochemical; conditions: 1 and 10 µM (either concentration); data not shown
T1 construct: Eurofins
T1 sequence (P00533 25-1210): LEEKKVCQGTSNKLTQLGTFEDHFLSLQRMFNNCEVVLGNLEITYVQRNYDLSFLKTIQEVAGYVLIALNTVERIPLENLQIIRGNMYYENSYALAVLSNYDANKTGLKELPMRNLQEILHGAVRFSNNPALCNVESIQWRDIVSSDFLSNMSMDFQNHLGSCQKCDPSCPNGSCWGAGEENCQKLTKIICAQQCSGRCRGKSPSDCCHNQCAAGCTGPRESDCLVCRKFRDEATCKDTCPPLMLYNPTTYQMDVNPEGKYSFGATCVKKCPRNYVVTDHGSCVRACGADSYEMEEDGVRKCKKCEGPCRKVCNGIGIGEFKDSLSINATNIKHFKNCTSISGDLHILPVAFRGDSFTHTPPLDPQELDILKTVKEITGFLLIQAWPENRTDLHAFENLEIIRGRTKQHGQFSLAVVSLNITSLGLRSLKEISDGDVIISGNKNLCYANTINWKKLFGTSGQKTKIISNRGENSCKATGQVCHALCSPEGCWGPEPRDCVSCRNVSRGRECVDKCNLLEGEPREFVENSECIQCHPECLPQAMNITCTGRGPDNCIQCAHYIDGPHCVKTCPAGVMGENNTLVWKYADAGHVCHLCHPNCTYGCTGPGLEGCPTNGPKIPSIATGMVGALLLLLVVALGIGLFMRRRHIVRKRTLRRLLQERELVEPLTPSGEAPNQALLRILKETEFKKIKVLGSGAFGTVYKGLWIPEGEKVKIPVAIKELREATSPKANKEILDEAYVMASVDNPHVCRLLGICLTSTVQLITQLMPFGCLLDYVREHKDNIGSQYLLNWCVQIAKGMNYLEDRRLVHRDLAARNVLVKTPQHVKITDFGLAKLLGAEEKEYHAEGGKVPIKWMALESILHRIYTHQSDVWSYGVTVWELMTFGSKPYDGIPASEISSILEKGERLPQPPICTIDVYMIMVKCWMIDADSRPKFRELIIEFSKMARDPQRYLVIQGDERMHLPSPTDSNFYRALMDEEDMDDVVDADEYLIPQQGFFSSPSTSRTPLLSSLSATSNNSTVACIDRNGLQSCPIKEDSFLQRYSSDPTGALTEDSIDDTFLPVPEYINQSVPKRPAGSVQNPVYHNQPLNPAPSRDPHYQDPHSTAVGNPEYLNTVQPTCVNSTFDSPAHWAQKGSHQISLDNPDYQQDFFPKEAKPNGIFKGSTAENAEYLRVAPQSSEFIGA
Protocol: Inhibition of EGFR assay: The inhibition of EGFR activity was determined using the LANCE®TR-FRET (time-resolved fluorescence energy transfer) test according to the protocol described by Weber et al. (1984). The reference compound (PD153035) was tested simultaneously with LASSBio-1920 (1 and 10 µM). The LASSBio-1920 concentrations were determined based on IC50 values and the compound’s aqueous solubility. The experiment was carried out in agreement with Eurofins®’s Standard Operating Procedure.

[1] = Microsomal (metabolic) stability; assay type: in vitro ADME; conditions: Wistar rat liver microsomes, with or without NADPH-generating system, 100 µM, up to 120 min
Protocol: Livers were obtained from male Wistar rats (250 and 300 g) from the Federal University of Ceara (UFC, Fortaleza, Brazil). The livers were maintained in an ice bath and washed with 3 volumes of 0.05 M Tris-HCl and 0.25 M sucrose, pH 7.4. They were then sliced and homogenized in a Potter–Elvehjem glass-Teflon homogenizer. The homogenates were centrifuged for 30 min at 900× g at 4 °C, and the supernatant fraction was centrifuged at 10,000× g for 1 h at 4 °C. The pellet was discarded, and the supernatant fraction was centrifuged at 100,000× g for 1 h at 4 °C. The microsomal fraction in the resulting pellet was recovered. The pellet was washed and resuspended twice in 0.05 M Tris-HCl, condensed into a pellet again by centrifugation for 1 h at 100,000× g at 4 °C and, finally, resuspended in the Tris-HCl buffer. Metabolic assays were carried out with frozen microsomes in Tris–HCl buffer, stored at –80 °C. […]
The final concentration of DMSO in the incubation mixture was 0.5%. […] The supernatant was analyzed by HPLC (acetonitrile/water 7:3 with 0.1% trifluoroacetic acid) using an internal standard (4-acetylbiphenyl—final concentration of 20 µM). […]

PAMPA-GIT permeability = assay type: in vitro ADME; conditions: PAMPA-GIT, 5 h, room temperature; read-out: Pe (Experimental)
Source text: (§1) For this, two 96-well plates were placed one above the other, and between them, an artificial hydrophobic polyvinylidene fluoride (PVDF) membrane, which was impregnated with a lipid solution. The top plate works as the donor compartment and the bottom one as the receiver compartment.
Parallel artificial membrane permeation assay for gastrointestinal tract (GIT-PAMPA): 1% (w/v) phosphatidylcholine was mixed with dodecane as a lipid solution to impregnate the PVDF membrane between the donor and receiver plates to stimulate intestinal permeability. […] A total of 180 µL of the mixture of PBS and DMSO (v/v 95:5) was added to the recipient plate, and 180 µL of the test solution was added to the donor plate. Immediately and carefully, the donor plate was placed above the receiver plate and incubated for 5 h at room temperature. The solution captured on the receptor plate was removed and subsequently analyzed by a UV detector (SpectraMax 5®—Molecular Devices, Sao Jose, CA, USA). The experiments were performed in quadruplicate.

PAMPA-BBB permeability = assay type: in vitro ADME; conditions: for Papp: PAMPA
Protocol: as §1
Parallel artificial membrane permeation assay for the blood–brain barrier (PAMPA-BBB): It was performed according to the previously reported [26] method established by Lu and coworkers [27].

[2] = test system: PC-9, lung adenocarcinoma (overexpressed EGFR with L858R mutation); experiment: MTT cytotoxicity assay, PC-9; conditions: for IC50: Homo sapiens
Protocol: (§2) The cytotoxicity of the compounds was determined using the MTT assay [13]. Cells were seeded in 96-well plates as follows: 0.7 × 10^5 cells/well for adherent cancer cells, 0.3 × 10^5 cells/well for suspended cancer cells, and 0.2 × 10^5 cells/well for HPBMCs. […] The control group was treated with the vehicle. […] After incubation, the supernatant was decanted and replaced with fresh medium containing MTT (0.5 mg/mL).
(§3) Data were presented as mean ± standard error of the mean (SEM) from three independent experiments performed in triplicate, calculated using Prism 8.0 (GraphPad/Intuitive Software for Science, San Diego, CA, USA). The IC50 of the compounds was obtained using a non-linear regression of the cytotoxicity curves.

[3] = test system: human tumor cell lines (HCT-116, SF-295, PC-3, H-1975, PC-9, N-87); experiment: MTT cytotoxicity assay, panel of human tumor cell lines; conditions: 72 h, read-out: IC50 values against all tumor cell lines
Protocol: as §2, §3

enzymatic inhibition of EGFR-wt (EGFR-wt): less than 20%
Papp at 5 h, 0.5 mM (PAMPA-GIT permeability): 6.6 ×10⁻⁶ cm/s
Papp (PAMPA-BBB permeability; PAMPA-BBB classification: absorbed by the Central Nervous System, read-out: CNS Permeability): > 3.47 ×10⁻⁶ cm/s
Papp (PAMPA-BBB permeability; PAMPA-BBB, mean, read-out: Pe (Experimental Mean)): 11.5 ×10⁻⁶ cm/s
Pe (Experimental Mean) (PAMPA-BBB permeability; PAMPA-BBB, mean): 11.48 10–6 cm/s
Pe1 (Experimental) (PAMPA-BBB permeability; PAMPA-BBB, replicate 1): 12.43 10–6 cm/s
Pe2 (Experimental) (PAMPA-BBB permeability; PAMPA-BBB, replicate 2): 10.53 10–6 cm/s
Structure (SMILES): COc1cc(C(=O)N/N=C/c2cc3ccccc3s2)cc(OC)c1OC [LASSBio-1920, (E)-N′-(Benzo[b]thiophen-2-ylmethylene)-3,4,5-trimethoxybenzohydrazide]
metabolic stability in liver microsomal fraction [1]: significantly metabolized by the microsomal fraction only in the presence of an NADPH-generating system
IC50 ([2]; 24 h, read-out: IC50 (95% CI) PC-9 24 h): 78.8 µM
IC50 ([2]; 48 h, read-out: IC50 (95% CI) PC-9 48 h): 1.01 µM
IC50 ([2]; 72 h, read-out: IC50 (95% CI) PC-9 72 h): 0.07 µM
SI HPBMC/PC-9 ([2]; IC50 for HPBMC/IC50 for the tumor cell line, 72 h): 2
IC50 [3]: 0.06 to 1.68 µM
